From patent publication US8183230B2, “Antimicrobial preservatives to achieve multi-dose formulation using beta-cyclodextrins for liquid dosage forms” (priority 2004, dated 2012)

Experiments:
[1] = Calculated non-sequestered concentrations in formulations
Text: These constants were used to calculate the concentration of non-sequestered meta-cresol in the formulations tested for anti-microbial efficacy.
The appearance of a plateau at the higher concentrations is only due to the limitation in the bactericidal efficacy measurement method. As the method consists in evaluating the population not killed by the preservative, when the whole population is dead (i.e. none is detectable any more ˜100%) the figure quoted is of the form: a log reduction greater than a value usually between 3 and 5.
The formulations were analyzed for preservative effectiveness.

[2] = Stability measurements (accelerated stability)
Experimental: Stability Measurements. Potential lead formulations were evaluated under various accelerated stability conditions in order to assess potency and purity of compound of Formula Ia, preservative content and SBE-CD content. For example, in one accelerated stability study, potential lead formulations were placed in stability ovens to measure short-term thermal stability. […] Purity and potency assays to measure compound of Formula Ia, as well as antimicrobial preservatives and SBE-CD content, were performed using validated HPLC methodology. SBE-CD was assayed using GTP 5984.

[3] = Solubility analysis (solubility method) for binding constant with SBE-CD; conditions: for K11 (equilibrium): meta-cresol saturated solubility in varying SBE-CD; for Slope / y-intercept: meta-cresol solubility vs. SBE-CD concentration
Experimental: Traditional solubility methods were performed initially to determine the solubility and binding constants of compound of Formula Ia and preservative with SBE-CD.
Binding was calculated for meta-cresol using solubility analysis. The experiment was performed at different concentrations of compound of Formula Ia to determine if there was any effect from the presence of drug in solution on the meta-cresol binding constant. Meta-cresol solubility was measured in excess (saturated) meta-cresol and the equilibrium binding constant was calculated using the following equation:
[formula] Where St is the total solubility of meta-cresol, s0 is the inherent solubility of meta-cresol, Lt is the total concentration of SBE-CD (ligand) and K11 is the equilibrium binding constant of meta-cresol assuming a 1 to 1 binding stoichiometry.

[4] = Equilibrium dialysis method for determining binding constants; conditions: for Keq / k: binary, SBE-CD 1.0 mM
Text: In the present invention, the method to determine binding constants utilizes equilibrium dialysis in the development of a multi-use parenteral formulation containing SBE-CD and a preservative. In particular, the method was applied in developing a parenteral formulation comprising the compound of Formula Ia, a cyclodextrin (SBE-CD) and a preservative (meta-cresol). This approach is applicable to compounds other than the compound of Formula Ia in developing parenteral formulations and is within the scope of this invention. […] The significance of this procedure is its ability to measure the binding constant of multiple compounds competing for binding with the cyclodextrin. The experimental dialysis data also provides an easily interpreted representation of binding in the formulation by visualizing the degree of interaction by the equilibrium established following dialysis.
Equilibrium dialysis permits calculation of binding constants by modeling the resultant diffusion rate across a semi-permeable membrane with an equilibrium end point. Equilibrium dialysis is performed by allowing the substrate in a solution containing bound substrate and ligand in a donor compartment of an equilibrium dialysis apparatus (cell) to equilibrate over time with an acceptor compartment. Ono, N., Hirayama, F., Arima, H., Uekama, K. “Determination of Stability Constant of β-Cyclodextrin Complexes Using the Membrane Permeation Technique and the Permeation Behavior of Drug Competing Agent-β-Cyclodextrin Ternary Systems” Eur. J. Pharm. Sci. 1999 9:133-139. The acceptor cell contains no ligand. The membrane is semi-permeable allowing the typically low molecular weight substrates to freely diffuse, while the cyclodextrin (MW=2163) remains in the donor compartment. Sampling from both compartments over time yields a time-concentration profile of substrate in both the donor and acceptor compartments of the dialysis cell.
A mathematical model describing the diffusion rate of drug across the membrane can be derived for systems containing two or more components in solution. The dialysis rate and binding constant for the substrates are obtained by resolving the equation using nonlinear curve fitting software. Depending on the interactions between the components it is possible to describe the competitive binding that occurs in the solution. The equilibrium binding constant is a measure of the relative concentration of meta-cresol bound to SBE-CD according to the chemical equilibrium equation below: S=meta-cresol, L=SBE-CD. S:L indicates the complex formed between meta-cresol and SBE-CD.
The initial experiments established the equilibrium dialysis flux rates for compound of Formula Ia and meta-cresol across the 500 MWCO dialysis membrane. Three different concentrations of compound of Formula Ia were initially loaded into the donor side of the dialysis well. Samples were withdrawn at various time intervals and concentration of free component was measured using HPLC. […] The smoothed line was a fit to the data using the model for a unitary system presented in the discussion. The equilibrium point for all these control experiments was reached after 50% of the total drug was distributed uniformly across the donor and acceptor sides of the well. This asymptotic approach to equilibrium was modeled and the dialysis rates were calculated, Table II.
The primary method of analyzing the data was to perform calculations from equilibrium dialysis data, as described below. In particular, the rate of diffusion across the membrane was calculated using the following equations:
The rate of diffusion from the donor phase is defined by the following relationship: [D]t−[D]eq=([D]0−[D]eq)e^(−2kt) (1)
Rate of diffusion into the Acceptor Phase: [D]eq−[D]t=[D]eqe^(−2kt) (2) wherein
The basis of calculation in the presence of SBE-CD is to assume that complexation occurs only in the donor phase according to the standard complexation reaction:
The value for CyDF may be substituted into equation 8. […]

[5] = system: Escherichia coli, Pseudomonas aeruginosa, Staphylococcus aureus, Candida albicans, Aspergillus niger; conditions: as indicated by literature; cited from earlier work
[6] = Compound of Formula Ia 00.00 mM
[7] = Compound of Formula Ia 10.67 mM
[8] = Compound of Formula Ia 21.34 mM
[9] = Compound of Formula Ia 42.67 mM
[10] = approximate ratio 1:1, Meta-cresol 1.1 mM
[11] = approximate ratio 1:2, Meta-cresol 0.6 mM
[12] = approximate ratio 1:4, Meta-cresol 0.3 mM

Cc1cccc(O)c1 [meta-cresol]
minimum concentration of non sequestered preservative ([1]; for preservative effectiveness in drug/cyclodextrin/preservative formulations): 2.1 mg/mL
calculated non-sequestered concentration ([1]; preferred formulation: 10 mgA/mL compound, 63 mg/mL SBE-CD, 3.3 mg/mL meta-cresol, pH 4.4): 2.8 mg/mL
stability in the formulation (in words) [2]: excellent stability
CONTENT (% INTENT) ([2]; 5° C., 1 week, Amber-Treated, 3 mg/mL meta-cresol, 100 mg/mL SBE-CD, 10 mgA/mL compound of Formula Ia): 102 % INTENT
CONTENT (% INTENT) ([2]; 5° C., 1 week, Amber-Untreated, 3 mg/mL meta-cresol, 100 mg/mL SBE-CD, 10 mgA/mL compound of Formula Ia): 102 % INTENT
CONTENT (% INTENT) ([2]; 5° C., 3 weeks, Amber-Treated, 3 mg/mL meta-cresol, 100 mg/mL SBE-CD, 10 mgA/mL compound of Formula Ia): 104 % INTENT
CONTENT (% INTENT) ([2]; 5° C., 3 weeks, Amber-Untreated, 3 mg/mL meta-cresol, 100 mg/mL SBE-CD, 10 mgA/mL compound of Formula Ia): 103 % INTENT
CONTENT (% INTENT) ([2]; 5° C., 6 weeks, Amber-Treated, 3 mg/mL meta-cresol, 100 mg/mL SBE-CD, 10 mgA/mL compound of Formula Ia): 104 % INTENT
CONTENT (% INTENT) ([2]; 5° C., 6 weeks, Amber-Untreated, 3 mg/mL meta-cresol, 100 mg/mL SBE-CD, 10 mgA/mL compound of Formula Ia): 102 % INTENT
CONTENT (% INTENT) ([2]; 5° C., 12 weeks, Amber-Treated, 3 mg/mL meta-cresol, 100 mg/mL SBE-CD, 10 mgA/mL compound of Formula Ia): 98 % INTENT
CONTENT (% INTENT) ([2]; 5° C., 12 weeks, Amber-Untreated, 3 mg/mL meta-cresol, 100 mg/mL SBE-CD, 10 mgA/mL compound of Formula Ia): 98 % INTENT
CONTENT (% INTENT) ([2]; 50° C., 1 week, Amber-Treated, 3 mg/mL meta-cresol, 100 mg/mL SBE-CD, 10 mgA/mL compound of Formula Ia): 99 % INTENT
CONTENT (% INTENT) ([2]; 50° C., 1 week, Amber-Untreated, 3 mg/mL meta-cresol, 100 mg/mL SBE-CD, 10 mgA/mL compound of Formula Ia): 100 % INTENT
CONTENT (% INTENT) ([2]; 50° C., 3 weeks, Amber-Treated, 3 mg/mL meta-cresol, 100 mg/mL SBE-CD, 10 mgA/mL compound of Formula Ia): 103 % INTENT
CONTENT (% INTENT) ([2]; 50° C., 3 weeks, Amber-Untreated, 3 mg/mL meta-cresol, 100 mg/mL SBE-CD, 10 mgA/mL compound of Formula Ia): 101 % INTENT
CONTENT (% INTENT) ([2]; 50° C., 6 weeks, Amber-Treated, 3 mg/mL meta-cresol, 100 mg/mL SBE-CD, 10 mgA/mL compound of Formula Ia): 104 % INTENT
CONTENT (% INTENT) ([2]; 50° C., 6 weeks, Amber-Untreated, 3 mg/mL meta-cresol, 100 mg/mL SBE-CD, 10 mgA/mL compound of Formula Ia): 102 % INTENT
CONTENT (% INTENT) ([2]; 50° C., 12 weeks, Amber-Treated, 3 mg/mL meta-cresol, 100 mg/mL SBE-CD, 10 mgA/mL compound of Formula Ia): 100 % INTENT
CONTENT (% INTENT) ([2]; 70° C., 1 week, Amber-Treated, 3 mg/mL meta-cresol, 100 mg/mL SBE-CD, 10 mgA/mL compound of Formula Ia): 100 % INTENT
CONTENT (% INTENT) ([2]; 70° C., 1 week, Amber-Untreated, 3 mg/mL meta-cresol, 100 mg/mL SBE-CD, 10 mgA/mL compound of Formula Ia): 100 % INTENT
CONTENT (% INTENT) ([2]; 70° C., 2 weeks, Amber-Treated, 3 mg/mL meta-cresol, 100 mg/mL SBE-CD, 10 mgA/mL compound of Formula Ia): 103 % INTENT
CONTENT (% INTENT) ([2]; 70° C., 2 weeks, Amber-Untreated, 3 mg/mL meta-cresol, 100 mg/mL SBE-CD, 10 mgA/mL compound of Formula Ia): 103 % INTENT
CONTENT (% INTENT) ([2]; 70° C., 3 weeks, Amber-Treated, 3 mg/mL meta-cresol, 100 mg/mL SBE-CD, 10 mgA/mL compound of Formula Ia): 100 % INTENT
CONTENT (% INTENT) ([2]; 70° C., 3 weeks, Amber-Untreated, 3 mg/mL meta-cresol, 100 mg/mL SBE-CD, 10 mgA/mL compound of Formula Ia): 102 % INTENT
CONTENT (% INTENT) ([2]; 70° C., 6 weeks, Amber-Treated, 3 mg/mL meta-cresol, 100 mg/mL SBE-CD, 10 mgA/mL compound of Formula Ia): 101 % INTENT
CONTENT (% INTENT) ([2]; 70° C., 6 weeks, Amber-Untreated, 3 mg/mL meta-cresol, 100 mg/mL SBE-CD, 10 mgA/mL compound of Formula Ia): 101 % INTENT
CONTENT (% INTENT) ([2]; 70° C., 12 weeks, Amber-Treated, 3 mg/mL meta-cresol, 100 mg/mL SBE-CD, 10 mgA/mL compound of Formula Ia): 100 % INTENT
CONTENT (% INTENT) ([2]; 70° C., 12 weeks, Amber-Untreated, 3 mg/mL meta-cresol, 100 mg/mL SBE-CD, 10 mgA/mL compound of Formula Ia): 100 % INTENT
CONTENT (% INTENT) ([2]; ICH Photostability, 1X ICH UV/FI, Amber-Treated, 3 mg/mL meta-cresol, 100 mg/mL SBE-CD, 10 mgA/mL compound of Formula Ia): 102 % INTENT
CONTENT (% INTENT) ([2]; ICH Photostability, 1X ICH UV/FI, Amber-Untreated, 3 mg/mL meta-cresol, 100 mg/mL SBE-CD, 10 mgA/mL compound of Formula Ia): 102 % INTENT
loss / potency decrease ([2]; after 12 weeks at 70° C., relative to 1 week at 5° C., 3 mg/mL meta-cresol, 100 mg/mL SBE-CD, 10 mgA/mL compound of Formula Ia): 2%
ACCEPTABLE STABILITY ([2]; pH 4.4, 10% SBE-CD, 10 mgA/mL compound of Formula Ia): ✓
Average Binding Constant ([3]; average over Compound of Formula Ia 00.00 to 42.67 mM): 27.59 M⁻¹
K11 (equilibrium) [3, 6]: 24.53 M⁻¹
K11 (equilibrium) [3, 7]: 25.78 M⁻¹
K11 (equilibrium) [3, 8]: 35.46 M⁻¹
K11 (equilibrium) [3, 9]: 24.59 M⁻¹
Slope [3, 6]: 0.46
y-intercept [3, 6]: 34.06 mM
Slope [3, 7]: 0.46
y-intercept [3, 7]: 33.15 mM
Slope [3, 8]: 0.53
y-intercept [3, 8]: 32.15 mM
Slope [3, 9]: 0.43
y-intercept [3, 9]: 31.15 mM
equilibrium binding constant, averaged across the studies ([3]; solubility method, SBE-CD): 27.6 M⁻¹
binding constant with SBE-CD ([3]; solubility method, n=1): 28 M⁻¹
Keq [4, 10]: 88 M⁻¹
k [4, 10]: 1.984 h⁻¹
Keq [4, 11]: 75 M⁻¹
k [4, 11]: 2.182 h⁻¹
Keq [4, 12]: 85 M⁻¹
k [4, 12]: 2.761 h⁻¹
binding constant with SBE-CD ([4]; equilibrium dialysis method, binary systems, drug ±352 M−1, n=3, preservative ±7 M−1): 83 M⁻¹
binding of preservative to cyclodextrin in ternary systems ([4]; ternary systems of SBE-CD, drug and preservative at the ratios tested, equilibrium profile): not bound to cyclodextrin
USP and Ph. Eur. criteria A or B requirements [5]: met both the USP and either Ph. Eur. criteria A or B requirements
